Here are results for 2 compounds from patent publication US20170290806A1, “PCSK9 Inhibitors and Methods of Use Thereof” (Temple University-Of The Commonwealth System of Higher …, priority 2014, published 2017).

Entries after “also recorded” stand apart in the source; their conditions may differ.

The target of test [1] is T1, PCSK9/LDLR interaction (Homo sapiens, UniProt Q8NBP7). The experiment in a line: LDLR upregulation in HepG2 cells. The arrangement: the human full-length PCSK9 was cloned; expressed in transfected cells. Format: cell-based. Conditions: for up-regulation of endogenously expressed LDLR: compounds 1-50 uM; for EC50: endogenously expressed LDLR, transfected with PCSK9, compounds 1-50 uM, 43 hours, read-out: EC50 of up-regulation of LDLR. How it is done:
HepG2 cells were seeded into 96 well plates in a MEM containing 10% Fetal Bovine Serum media and incubated overnight at 37° C. Cells were transiently transfected with PCSK9 cDNA constructs using the Lipofectamine-LTX. Compounds (1-50 uM) were added, followed by additional 43 hours of incubation. The cells were lysed and analyzed for LDLR expression and cell viability determined as described in FIG. 8.
(§1) Considering the difficulty in assaying the LDLR/PCSK9 binding, the approach was to develop and implement an innovative recombinant cell based assay where the full-length PCSK9 and the LDLR genes are expressed into HEK-293 cells, and allowed to decrease the LDLR level by PCSK9 (FIG. 7). Compounds that prevent the LDLR degradation without preventing the auto-processing and secretion of the PCSK9 were selected as potential candidates and were further evaluated using additional cell based assay using endogenously expressed LDLR in liver cells (HepG2 cells).
The compounds SBC-110,424, SBC-110, 433, and SBC-115,076 were also validated for their ability to up-regulate the endogenously expressed LDLR in HepG2 cells.

Test [2] addresses T1, PCSK9/LDLR interaction. The test can be described thus: Recombinant cell based assay: LDLR upregulation in HEK293 cells transfected with LDLR and PCSK9. Conditions: for increase in the LDLR (intracellular recombinant LDLR upregulation) as comparable to control / EC50: HEK293 cells transfected with LDLR and PCSK9; for increase in the LDLR (intracellular recombinant LDLR upregulation) as comparable to control: compounds 1-50 μM; for EC50: compounds 1-50 uM, 43 hours incubation, read-out: EC50 of LDLR up-regulation; for IC50s (increase in the LDLR): PCSK9/LDLR HEK293 recombinant cell based assay. The arrangement: the human full-length PCSK9 was cloned; expressed in transfected cells; host or cells: HEK-293T. Here is the method: HEK-293T cells were seeded into 96 well plates in a DMEM containing 10% Fetal Bovine Serum media and incubated overnight at 37° C. Cells were transiently transfected with LDLR and PCSK9 cDNA constructs using the Lipofectamine-LTX. Compounds (1-50 uM) were added, followed by additional 43 hours of incubation. The cells were lysed and analyzed for LDLR expression and cell viability determined as described in FIG. 7.
HEK-293T cells were seeded into 96 well plates in a DMEM containing 10% Fetal Bovine Serum media and incubated overnight at 37° C. Cells were transiently transfected with LDLR and PCSK9 cDNA constructs using the Lipofectamine-LTX. Compounds (1-50 uM) were added, followed by additional 43 hours of incubation. The cells were lysed and analyzed for LDLR expression and cell viability determined as described in FIG. 8. […] Compound SBC-130,022 has no effect in up-regulating LDLR.
as §1
Preparation of constructs: the human full-length PCSK9 was cloned. The cDNA encoding the PCSK9 sequence with and without a FLAG epitope tag (DYKDDDDK) were cloned by PCR and subcloned into mammalian expression vector containing the cytomegalovirus promoter-enhancer (pCMV-PCSK9-FLAG) (pCDNA3.1/PCSK9). For LDLR, the coding sequence was constructed without tag in mammalian expression vector (pCMV-LDLR) (pCDNA3.1/LDLR). The constructs were confirmed by sequence analysis
The pCDNA3.1/PCSK9, and the pCDNA3.1/LDLR constructs were used to transiently transfect mammalian cells. The human embryonic kidney (HEK)-293 cells were seeded (1×10^5 cells/well) in 24-well plates. Expression plasmids ([…]) were transiently transfected into HEK-293 cells with lipofectamine (Invitrogen) according to the manufacturer's protocol. Twenty four to forty eight hours after transfection, cells were harvested. The cells were then be lysed. Both cell lysate and supernatant were subjected to SDS-PAGE and immunoblot analysis using an anti-PCSK9 or LDLR antibody.
240 compounds identified from the virtual screen in a cell based assay for their potential to upregulate the LDLR in the presence of PCSK9 were tested as described above. Initial screening was done using 50 μM of the compounds. Each compound was added to the cell media in triplicates, and intrecellar LDLR was detected as described above. Each set of compounds were screened at least twice with all appropriate controls. Compounds that upregulate the LDLR were selected for further evaluation.
From the initial screening, 24 compounds were identified as potential hits. Hits confirmation was repeated in triplicates using 50 μM.

T1 sequence (Q8NBP7 153-692): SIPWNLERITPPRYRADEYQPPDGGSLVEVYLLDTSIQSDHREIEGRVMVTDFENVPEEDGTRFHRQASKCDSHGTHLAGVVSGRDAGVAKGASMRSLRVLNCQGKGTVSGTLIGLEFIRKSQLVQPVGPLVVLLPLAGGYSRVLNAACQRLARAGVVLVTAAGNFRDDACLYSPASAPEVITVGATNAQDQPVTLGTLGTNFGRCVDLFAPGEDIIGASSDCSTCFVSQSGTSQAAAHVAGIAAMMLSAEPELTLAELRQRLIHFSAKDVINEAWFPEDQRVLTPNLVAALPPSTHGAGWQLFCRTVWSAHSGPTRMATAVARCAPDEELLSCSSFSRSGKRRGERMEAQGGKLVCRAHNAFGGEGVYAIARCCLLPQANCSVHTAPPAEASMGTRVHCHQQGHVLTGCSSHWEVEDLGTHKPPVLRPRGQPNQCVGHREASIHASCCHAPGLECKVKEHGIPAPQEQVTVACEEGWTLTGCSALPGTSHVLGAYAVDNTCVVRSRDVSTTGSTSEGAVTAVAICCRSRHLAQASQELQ
T1 sequence (Q8NBP7 31-152 partner limits assumed): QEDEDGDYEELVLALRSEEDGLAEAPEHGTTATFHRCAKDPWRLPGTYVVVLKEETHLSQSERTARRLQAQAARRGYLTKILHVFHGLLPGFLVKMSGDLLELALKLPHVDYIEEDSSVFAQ

Consider `Cc1cc(C(=O)C2=C(O)C(=O)N(CCCN3CCOCC3)C2c2ccncc2)ccc1OCc1ccccc1` (stereo not shown) [SBC-115,076], for which, in test [1], the “up-regulation of endogenously expressed LDLR” value is recorded as “concentration dependent up-regulation” and the EC50 worked out at 430 nM. Moreover, in test [2], the “increase in the LDLR (intracellular recombinant LDLR upregulation) as comparable to control” value is “concentration dependent increase”, the EC50 is 3100 nM and the “IC50s (increase in the LDLR)” value was “low uM range”.
As for `CC(C)(C(=O)NCc1ccco1)n1cc(NC(=O)c2cccnc2)cn1` [SBC-110,424], in test [1], the “up-regulation of endogenously expressed LDLR” value was “concentration dependent up-regulation” and the EC50 stood at 2000 nM. In test [2], the “increase in the LDLR (intracellular recombinant LDLR upregulation) as comparable to control” value is reported as “concentration dependent increase; also recorded: significant potency”, the 50% effective concentration (EC50) is 3500 nM and the “IC50s (increase in the LDLR)” value was “low uM range”.

As usually defined, the EC50 is the concentration giving half of the maximal effect.
